This note sets out measurements from patent publication US20250188084A1, “COMPOUNDS AND METHODS FOR MODULATING CDK9 ACTIVITY” (KRONOS BIO, INC., priority 2020, published 2025).

Bounds are passed on as bounds.

Assay [1] deals with T1, CDK9 (Homo sapiens, UniProt P50750).
T1 construct: NCIH211 cells with endogenously tagged N-terminal CDK9-HiBit; endogenous in cells; host or cells: NCIH211 cells (endogenous CDK9 locus tagged with HiBit)
As to the kind of experiment: CDK9 degradation by HiBit assay, NCIH1048 cells. The following applies: NCIH1048 cells with endogenously tagged N-terminal CDK9-HiBit, 24 hours incubation; read-out: HiBit-NCIH1048.3 DC50. Format: cell-based. The procedure:
(§1) Exemplary compounds of the invention were tested for degradation of CDK9. The compounds were tested in 10-dose DC50 duplicate mode with a 3-fold serial dilution starting at 10 μM by HiBit assay (Promega, Inc) as a direct measurement of CDK9 presence, with incubation time of 24 hours using either NCIH211 cells with endogenously tagged N-terminal CDK9-HiBit or NCIH1048 cells with endogenously tagged N-terminal CDK9-HiBit. A control compound (THAL-SNS-032, CAS 2139287-33-3) was tested in 10-dose DC50 mode with 3-fold serial dilution starting at 10 μM. Data was normalized to positive (medium only) and negative (cells with no treatment) controls and curve fits were analyzed with CDK9 as % response vs. log [compound concentration] using a 4-parameter logistic model by GraphPad software. For Table 2: A is <100, B is <1000 C is <10,000, D is >10,000 and ND is Not Determined.

Assay [2] addresses T1, CDK9. As to the kind of experiment: CDK9 degradation by HiBit assay, NCIH211 cells. The following applies: NCIH211 cells with endogenously tagged N-terminal CDK9-HiBit, 24 hours incubation; read-out: HiBit-NCIH211.2 DC50. It is filed as cell-based. Here is the method: as §1

T1 sequence (P50750 whole entry): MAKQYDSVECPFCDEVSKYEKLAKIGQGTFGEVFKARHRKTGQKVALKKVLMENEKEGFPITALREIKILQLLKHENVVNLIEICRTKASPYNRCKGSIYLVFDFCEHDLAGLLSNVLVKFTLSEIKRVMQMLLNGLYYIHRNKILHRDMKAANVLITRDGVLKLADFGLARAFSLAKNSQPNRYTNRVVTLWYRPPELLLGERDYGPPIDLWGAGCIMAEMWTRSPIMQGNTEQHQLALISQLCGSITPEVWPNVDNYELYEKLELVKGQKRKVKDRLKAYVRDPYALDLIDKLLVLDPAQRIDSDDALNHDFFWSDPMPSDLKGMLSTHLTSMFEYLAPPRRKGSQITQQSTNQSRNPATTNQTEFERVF
T1 sequence (O60563 whole entry partner): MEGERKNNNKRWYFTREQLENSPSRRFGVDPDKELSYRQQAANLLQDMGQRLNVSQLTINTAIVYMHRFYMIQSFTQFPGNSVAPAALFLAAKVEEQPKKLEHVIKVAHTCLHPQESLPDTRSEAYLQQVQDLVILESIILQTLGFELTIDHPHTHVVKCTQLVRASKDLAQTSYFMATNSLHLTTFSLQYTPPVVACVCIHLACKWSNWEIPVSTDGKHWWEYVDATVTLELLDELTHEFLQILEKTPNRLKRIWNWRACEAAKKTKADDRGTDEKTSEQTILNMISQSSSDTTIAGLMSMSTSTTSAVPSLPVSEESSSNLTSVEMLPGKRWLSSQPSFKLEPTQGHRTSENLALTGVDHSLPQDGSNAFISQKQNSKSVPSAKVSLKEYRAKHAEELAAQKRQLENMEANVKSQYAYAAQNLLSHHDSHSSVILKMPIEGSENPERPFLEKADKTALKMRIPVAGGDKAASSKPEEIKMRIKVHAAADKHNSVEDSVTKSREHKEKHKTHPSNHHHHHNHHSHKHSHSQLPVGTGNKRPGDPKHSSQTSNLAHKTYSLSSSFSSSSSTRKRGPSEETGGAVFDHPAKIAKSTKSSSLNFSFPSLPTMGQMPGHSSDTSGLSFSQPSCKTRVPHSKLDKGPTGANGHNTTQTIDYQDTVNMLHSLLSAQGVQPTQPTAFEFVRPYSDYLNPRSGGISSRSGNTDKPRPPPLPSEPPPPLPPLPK

With `CCC(CC)c1cc(N[C@H]2CC[C@H](NCC(=O)NCCOCCOCCOCCNc3cccc4c3C(=O)N(C3CCC(=O)NC3=O)C4=O)C2)n2nccc2n1` (stereo partly drawn) [Compound 5.0, N-[2-[2-[2-[2-[[2-(2,6-dioxo-3-piperidyl)-1,3-dioxo-isoindolin-4-yl]amino]ethoxy]ethoxy]ethoxy]ethyl]-2-[[(1S,3S)-3-[[5-(1-ethylpropyl)pyrazolo[1,5-a]pyrimidin-7-yl]amino]cyclopentyl]amino]acetamide], the DC50 at CDK9 [1] is under 1 µM; at CDK9 [2] it was under 10 µM.
The matching figures for `CCC(CC)c1cc(N[C@H]2CC[C@H](NCC(=O)NCCOCCOCCOCCNc3cccc4c3C(=O)N(C3CCC(=O)NC3=O)C4=O)C2)n2ncc(Cl)c2n1` (stereo partly drawn) [Compound 6.0, N-[2-[2-[2-[2-[[2-(2,6-dioxo-3-piperidyl)-1,3-dioxo-isoindolin-4-yl]amino]ethoxy]ethoxy]ethoxy]ethyl]-2-[[(1S,3S)-3-[[3-chloro-5-(1-ethylpropyl)pyrazolo[1,5-a]pyrimidin-7-yl]amino]cyclopentyl]amino]acetamide]: under 0.1 µM and under 1 µM.
The matching figures for `C/C=C(\CC)c1cc(N[C@H]2CC[C@H](NCC(=O)N3CCN(CCCNc4cccc5c4C(=O)N(C4CCC(=O)NC4=O)C5=O)CC3)C2)n2nccc2n1` (stereo partly drawn) [Compound 21.0, 2-(2,6-dioxo-3-piperidyl)-4-[3-[4-[2-[[(1S,3S)-3-[[5-[(E)-1-ethylprop-1-enyl]pyrazolo[1,5-a]pyrimidin-7-yl]amino]cyclopentyl]amino]acetyl]piperazin-1-yl]propylamino]isoindoline-1,3-dione]: under 0.1 µM and under 0.1 µM.
Take `CCC(CC)c1cc(N[C@H]2CC[C@H](NCC(=O)NCc3cn(CCOCCOCC(=O)N[C@H](C(=O)N4C[C@H](O)C[C@H]4C(=O)NCc4ccc(-c5scnc5C)cc4)C(C)(C)C)nn3)C2)n2nccc2n1` [Compound 26.0]: the DC50 on CDK9 [2] is over 10 µM.
Same read-out and setting: next, `CCC(CC)c1cc(N[C@H]2CC[C@H](NCC(=O)NCc3cn(CCOCCOCCOCC(=O)N[C@H](C(=O)N4C[C@H](O)C[C@H]4C(=O)NCc4ccc(-c5scnc5C)cc4)C(C)(C)C)nn3)C2)n2nccc2n1` [Compound 27.0]: over 10 µM.
Still for that read-out and setting: next, `CCC(CC)c1cc(N[C@H]2CC[C@H](NCC(=O)NCc3cn(CCOCCOCCOCCOCC(=O)N[C@H](C(=O)N4C[C@H](O)C[C@H]4C(=O)NCc4ccc(-c5scnc5C)cc4)C(C)(C)C)nn3)C2)n2nccc2n1` [Compound 28.0]: over 10 µM.
`CCC(CC)c1cc(N[C@H]2CC[C@H](NCC(=O)NCc3cn(CCOCCOc4cc(-c5scnc5C)ccc4CNC(=O)[C@@H]4C[C@@H](O)CN4C(=O)[C@H](C(C)C)N4Cc5ccccc5C4=O)nn3)C2)n2nccc2n1` [Compound 29.0]: on CDK9 [2], the DC50 was over 10 µM.
On the same count and under the same terms, next, `CCC(CC)c1cc(N[C@H]2CC[C@H](NCC(=O)NCc3cn(CCOCCOCCOCCOc4cc(-c5scnc5C)ccc4CNC(=O)[C@@H]4C[C@@H](O)CN4C(=O)[C@H](C(C)C)N4Cc5ccccc5C4=O)nn3)C2)n2nccc2n1` [Compound 31.0]: over 10 µM; `CCC(CC)c1cc(N[C@H]2CC[C@H](NCC(=O)NCc3cn(CCOCCOCCOCCOCCOc4cc(-c5scnc5C)ccc4CNC(=O)[C@@H]4C[C@@H](O)CN4C(=O)[C@H](C(C)C)N4Cc5ccccc5C4=O)nn3)C2)n2nccc2n1` [Compound 32.0]: over 10 µM; `CCC(CC)c1cc(N[C@H]2CC[C@H](NCc3cn(CCOCC(=O)N[C@H](C(=O)N4C[C@H](O)C[C@H]4C(=O)NCc4ccc(-c5scnc5C)cc4)C(C)(C)C)nn3)C2)n2nccc2n1` [Compound 33.0]: over 10 µM.
Same read-out and setting: next, `CCC(CC)c1cc(N[C@H]2CC[C@H](NCc3cn(CCOCCOCC(=O)N[C@H](C(=O)N4C[C@H](O)C[C@H]4C(=O)NCc4ccc(-c5scnc5C)cc4)C(C)(C)C)nn3)C2)n2nccc2n1` [Compound 34.0]: over 10 µM.
On to `CCC(CC)c1cc(N[C@H]2CC[C@H](NCc3cn(CCOCCOCCOCC(=O)N[C@H](C(=O)N4C[C@H](O)C[C@H]4C(=O)NCc4ccc(-c5scnc5C)cc4)C(C)(C)C)nn3)C2)n2nccc2n1` [Compound 35.0], for which, on CDK9 [2], the DC50 was over 10 µM.
Regarding `CCC(CC)c1cc(N[C@H]2CC[C@H](NCc3cn(CCOCCOCCOCCOCC(=O)N[C@H](C(=O)N4C[C@H](O)C[C@H]4C(=O)NCc4ccc(-c5scnc5C)cc4)C(C)(C)C)nn3)C2)n2nccc2n1` [Compound 36.0], the DC50 on CDK9 [2] was over 10 µM.
On the same count and under the same terms, next, `CCC(CC)c1cc(N[C@H]2CC[C@H](NCc3cn(CCOCCOc4cc(-c5scnc5C)ccc4CNC(=O)[C@@H]4C[C@@H](O)CN4C(=O)[C@H](C(C)C)N4Cc5ccccc5C4=O)nn3)C2)n2nccc2n1` [Compound 37.0]: over 10 µM.
The same measure, in the same setting: as for `CCC(CC)c1cc(N[C@H]2CC[C@H](NCc3cn(CCOCCOCCOc4cc(-c5scnc5C)ccc4CNC(=O)[C@@H]4C[C@@H](O)CN4C(=O)[C@H](C(C)C)N4Cc5ccccc5C4=O)nn3)C2)n2nccc2n1` [Compound 38.0], the figure is over 10 µM; as for `CCC(CC)c1cc(N[C@H]2CC[C@H](NCc3cn(CCOCCOCCOCCOc4cc(-c5scnc5C)ccc4CNC(=O)[C@@H]4C[C@@H](O)CN4C(=O)[C@H](C(C)C)N4Cc5ccccc5C4=O)nn3)C2)n2nccc2n1` [Compound 39.0], over 10 µM.
Turning to `CCC(CC)c1cc(N[C@H]2CC[C@H](NCc3cn(CCOCCOCCOCCOCCOc4cc(-c5scnc5C)ccc4CNC(=O)[C@@H]4C[C@@H](O)CN4C(=O)[C@H](C(C)C)N4Cc5ccccc5C4=O)nn3)C2)n2nccc2n1` [Compound 40.0], the half-maximal degradation concentration (DC50) on CDK9 [2] is over 10 µM.
Turning to `CCC(CC)c1cc(N[C@H]2CC[C@H](NCC(=O)NCCCc3cn(CCOCCOCCOCCOCC(=O)N[C@H](C(=O)N4C[C@H](O)C[C@H]4C(=O)NCc4ccc(-c5scnc5C)cc4)C(C)(C)C)nn3)C2)n2ncc(Cl)c2n1` [Compound 41.0], the DC50 at CDK9 [2] was over 10 µM.
For the compound `CCC(CC)c1cc(N[C@H]2CC[C@H](NCC(=O)NCCCc3cn(CCOCCOCCOCC(=O)N[C@H](C(=O)N4C[C@H](O)C[C@H]4C(=O)NCc4ccc(-c5scnc5C)cc4)C(C)(C)C)nn3)C2)n2ncc(Cl)c2n1` [Compound 42.0], the half-maximal degradation concentration (DC50) on CDK9 [2] was over 10 µM.
The same measure, in the same setting: next, `CCC(CC)c1cc(N[C@H]2CC[C@H](NCC(=O)NCCCc3cn(CCOCC(=O)N[C@H](C(=O)N4C[C@H](O)C[C@H]4C(=O)NCc4ccc(-c5scnc5C)cc4)C(C)(C)C)nn3)C2)n2ncc(Cl)c2n1` [Compound 43.0]: over 10 µM.
On the same count and under the same terms, next, `CCC(CC)c1cc(N[C@H]2CC[C@H](NCC(=O)NCCCc3cn(CCOCCOCC(=O)N[C@H](C(=O)N4C[C@H](O)C[C@H]4C(=O)NCc4ccc(-c5scnc5C)cc4)C(C)(C)C)nn3)C2)n2ncc(Cl)c2n1` [Compound 44.0]: over 10 µM.
Regarding `CCC(CC)c1cc(N[C@H]2CC[C@H](NCC(=O)N3CCN(CCCCNc4cccc5c4C(=O)N(C4CCC(=O)NC4=O)C5=O)CC3)C2)n2ncc(Cl)c2n1` (some centres unmarked) [Compound 45.0], the DC50 at CDK9 [1] and at CDK9 [2] was under 0.1 µM in each case.
Consider `CCC(CC)c1cc(N[C@H]2CC[C@H](NCC(=O)N3CCN(CCCCNc4cccc5c4C(=O)N(C4CCC(=O)NC4=O)C5=O)CC3)C2)n2nccc2n1` (some centres unmarked) [Compound 46.0], for which the results for the DC50 at CDK9 [1] and at CDK9 [2] were under 0.1 µM and under 1 µM, respectively.
The matching figures for `CCC(CC)c1cc(N[C@H]2CC[C@H](NCC(=O)N3CCN(CCNc4cccc5c4C(=O)N(C4CCC(=O)NC4=O)C5=O)CC3)C2)n2nccc2n1` (some centres unmarked) [Compound 47.0]: under 0.1 µM and under 1 µM.
The matching figures for `CCC(CC)c1cc(N[C@H]2CC[C@H](NCC(=O)N3CCN(CCCNc4cccc5c4C(=O)N(C4CCC(=O)NC4=O)C5=O)CC3)C2)n2nccc2n1` (some centres unmarked) [Compound 48.0]: under 0.1 µM and under 1 µM.
Consider `CCC(CC)c1cc(N[C@H]2CC[C@H](NCC(=O)N3CCN(CCNc4cccc5c4C(=O)N(C4CCC(=O)NC4=O)C5=O)CC3)C2)n2ncc(Cl)c2n1` (some centres unmarked) [Compound 49.0], for which, on CDK9 [2], the DC50 was under 0.1 µM.
With `CCC(CC)c1cc(N[C@H]2CC[C@H](NCC(=O)N3CCN(CCCNc4cccc5c4C(=O)N(C4CCC(=O)NC4=O)C5=O)CC3)C2)n2ncc(Cl)c2n1` (some centres unmarked) [Compound 50.0], the DC50 at CDK9 [1] and at CDK9 [2] was under 0.1 µM each time.
On to `CCC(CC)c1cc(N[C@H]2CC[C@H](NCC(=O)NCCCc3cn(CCOCCOCCOc4cc(-c5scnc5C)ccc4CNC(=O)[C@@H]4C[C@@H](O)CN4C(=O)[C@H](C(C)C)N4Cc5ccccc5C4=O)nn3)C2)n2ncc(Cl)c2n1` [Compound 51.0], for which the DC50 on CDK9 [1] and on CDK9 [2] was under 10 µM each time.
`CCC(CC)c1cc(N[C@H]2CC[C@H](NCC(=O)NCCCc3cn(CCOCCOc4cc(-c5scnc5C)ccc4CNC(=O)[C@@H]4C[C@@H](O)CN4C(=O)[C@H](C(C)C)N4Cc5ccccc5C4=O)nn3)C2)n2ncc(Cl)c2n1` [Compound 52.0]: the DC50 on CDK9 [1] was under 10 µM; on CDK9 [2] it was over 10 µM.
For the compound `CCC(CC)c1cc(N[C@H]2CC[C@H](NCC(=O)NCCCc3cn(CCOCCOCCOCCOc4cc(-c5scnc5C)ccc4CNC(=O)[C@@H]4C[C@@H](O)CN4C(=O)[C@H](C(C)C)N4Cc5ccccc5C4=O)nn3)C2)n2ncc(Cl)c2n1` [Compound 53.0], the DC50 at CDK9 [1] and on CDK9 [2] was under 10 µM each time.
